Measured values from ChEMBL document CHEMBL3407358, “Boehmeriasin A as new lead compound for the inhibition of topoisomerases and SIRT2” (Eur J Med Chem, 2015).
Activity calls are given as the source filed them. The calls are words filed in the database; no cut-off is given here.

What was measured:
[1] = test system: HeLa; test: Antiproliferative activity against human HeLa cells after 4 days by Coulter counter method; assay type: functional, cell-based; settings: 96 h
[2] = Antiproliferative activity against bovine BAEC cells after 3 days by Coulter counter method; assay type: functional, cell-based; settings: Bos taurus, 72 h
[3] = test system: CCRF-CEM; test: Antiproliferative activity against human CEM cells after 96 hrs by Coulter counter method; assay type: functional, cell-based
[4] = Antiproliferative activity against human HMEC1 cells after 4 days by Coulter counter method; assay type: functional, cell-based; settings: HMEC-1, 96 h
[5] = test system: L1210; test: Antiproliferative activity against mouse L1210 cells after 48 hrs by Coulter counter method; assay type: functional, cell-based; settings: L1210, 48 h
[6] = molecular target: DNA topoisomerase 2-alpha (Homo sapiens) (UniProt P11388); test: Stabilization of recombinant human topoisomerase 2-pBR322 DNA cleavage complex assessed as linear DNA formation at 10 uM after 60 mins by agarose gel electrophoresis
[7] = molecular target: T1, DNA topoisomerase 1 (Homo sapiens) (UniProt P11387); test: Stabilization of recombinant human topoisomerase 1-pBR322 DNA cleavage complex assessed as linear DNA formation at 0.5 uM after 60 mins by agarose gel electrophoresis
T1 sequence (whole entry): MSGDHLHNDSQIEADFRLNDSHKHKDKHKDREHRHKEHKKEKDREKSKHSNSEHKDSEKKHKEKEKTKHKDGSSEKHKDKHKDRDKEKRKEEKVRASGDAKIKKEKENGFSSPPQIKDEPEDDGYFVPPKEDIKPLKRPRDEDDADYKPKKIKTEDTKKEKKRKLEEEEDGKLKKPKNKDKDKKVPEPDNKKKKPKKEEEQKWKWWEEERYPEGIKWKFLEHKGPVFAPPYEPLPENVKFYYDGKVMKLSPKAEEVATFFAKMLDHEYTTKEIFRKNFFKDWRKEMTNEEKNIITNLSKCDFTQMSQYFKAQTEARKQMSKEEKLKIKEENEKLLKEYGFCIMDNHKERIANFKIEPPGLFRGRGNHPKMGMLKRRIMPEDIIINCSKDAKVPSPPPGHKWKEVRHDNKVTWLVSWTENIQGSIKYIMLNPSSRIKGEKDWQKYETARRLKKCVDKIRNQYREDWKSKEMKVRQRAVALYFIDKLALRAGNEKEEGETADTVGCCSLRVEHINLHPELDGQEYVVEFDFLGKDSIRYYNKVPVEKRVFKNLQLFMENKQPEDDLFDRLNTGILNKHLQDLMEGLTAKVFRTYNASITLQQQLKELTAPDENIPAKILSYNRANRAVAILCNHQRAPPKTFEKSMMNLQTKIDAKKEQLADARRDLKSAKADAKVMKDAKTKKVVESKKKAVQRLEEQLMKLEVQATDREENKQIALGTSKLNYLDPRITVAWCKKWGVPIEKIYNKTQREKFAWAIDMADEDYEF

[8] = molecular target: T2, NAD-dependent protein deacetylase sirtuin-1 (Homo sapiens) (UniProt Q96EB6); test: Inhibition of SIRT1 (unknown origin) using KI177 as substrate preincubated at 200 uM for 5 mins before substrate addition measured after 1 hr by Fluor de Lys fluorescence assay
T2 sequence (whole entry): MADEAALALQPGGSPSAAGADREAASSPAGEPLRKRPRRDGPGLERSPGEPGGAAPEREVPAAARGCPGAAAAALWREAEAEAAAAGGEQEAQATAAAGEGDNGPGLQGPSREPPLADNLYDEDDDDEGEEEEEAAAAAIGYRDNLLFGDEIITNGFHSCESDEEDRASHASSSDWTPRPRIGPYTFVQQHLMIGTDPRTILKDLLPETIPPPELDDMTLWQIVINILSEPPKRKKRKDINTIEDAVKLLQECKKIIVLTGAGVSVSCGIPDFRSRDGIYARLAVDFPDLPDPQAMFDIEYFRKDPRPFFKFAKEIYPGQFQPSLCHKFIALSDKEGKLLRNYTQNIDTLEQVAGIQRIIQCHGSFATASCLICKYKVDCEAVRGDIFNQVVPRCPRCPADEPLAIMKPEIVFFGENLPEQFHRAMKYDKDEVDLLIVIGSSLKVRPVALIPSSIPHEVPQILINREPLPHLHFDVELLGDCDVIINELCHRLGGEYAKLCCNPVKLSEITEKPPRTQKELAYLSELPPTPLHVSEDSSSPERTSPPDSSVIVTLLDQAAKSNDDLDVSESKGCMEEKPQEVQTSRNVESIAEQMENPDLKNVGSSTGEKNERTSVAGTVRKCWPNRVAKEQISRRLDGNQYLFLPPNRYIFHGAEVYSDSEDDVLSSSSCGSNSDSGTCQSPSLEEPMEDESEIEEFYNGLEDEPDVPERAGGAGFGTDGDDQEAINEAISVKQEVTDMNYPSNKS

[9] = molecular target: DNA topoisomerase 2-alpha (Homo sapiens) (UniProt P11388); test: Inhibition of recombinant human topoisomerase 2-mediated relaxation of supercoiled pBR322 DNA after 60 mins by agarose gel electrophoresis
[10] = molecular target: DNA topoisomerase 2-alpha (Homo sapiens) (UniProt P11388); test: Stabilization of recombinant human topoisomerase 2-pBR322 DNA cleavage complex assessed as linear DNA formation at 100 uM after 60 mins by agarose gel electrophoresis
[11] = molecular target: T3, NAD-dependent protein deacetylase sirtuin-2 (Homo sapiens) (UniProt Q8IXJ6); test: Inhibition of SIRT2 (unknown origin) using KI179 as substrate preincubated at 200 uM for 5 mins before substrate addition measured after 1 hr by Fluor de Lys fluorescence assay
T3 sequence (whole entry): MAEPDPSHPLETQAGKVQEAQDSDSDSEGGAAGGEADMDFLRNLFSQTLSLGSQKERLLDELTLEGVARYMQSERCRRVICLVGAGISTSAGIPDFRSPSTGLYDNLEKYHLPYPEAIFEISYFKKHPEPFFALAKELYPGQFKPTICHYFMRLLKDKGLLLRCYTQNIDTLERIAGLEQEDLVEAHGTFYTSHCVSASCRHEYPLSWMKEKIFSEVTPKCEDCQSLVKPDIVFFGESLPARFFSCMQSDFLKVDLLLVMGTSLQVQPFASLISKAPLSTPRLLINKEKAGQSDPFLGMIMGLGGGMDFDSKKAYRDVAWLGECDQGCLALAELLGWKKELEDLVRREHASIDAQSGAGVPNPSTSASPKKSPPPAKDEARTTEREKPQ

[12] = molecular target: DNA topoisomerase 2-alpha (Homo sapiens) (UniProt P11388); test: Inhibition of recombinant human topoisomerase 2-mediated relaxation of supercoiled pBR322 DNA at 10 uM after 60 mins by agarose gel electrophoresis
[13] = molecular target: T1, DNA topoisomerase 1 (Homo sapiens); test: Inhibition of recombinant human topoisomerase 1-mediated relaxation of supercoiled pBR322 DNA at 10 uM after 60 mins by agarose gel electrophoresis
[14] = molecular target: DNA topoisomerase 2-alpha (Homo sapiens) (UniProt P11388); test: Inhibition of recombinant human topoisomerase 2-mediated relaxation of supercoiled pBR322 DNA at 50 uM after 60 mins by agarose gel electrophoresis

DNA topoisomerase 2-alpha (Homo sapiens), sequence (P11388 whole entry): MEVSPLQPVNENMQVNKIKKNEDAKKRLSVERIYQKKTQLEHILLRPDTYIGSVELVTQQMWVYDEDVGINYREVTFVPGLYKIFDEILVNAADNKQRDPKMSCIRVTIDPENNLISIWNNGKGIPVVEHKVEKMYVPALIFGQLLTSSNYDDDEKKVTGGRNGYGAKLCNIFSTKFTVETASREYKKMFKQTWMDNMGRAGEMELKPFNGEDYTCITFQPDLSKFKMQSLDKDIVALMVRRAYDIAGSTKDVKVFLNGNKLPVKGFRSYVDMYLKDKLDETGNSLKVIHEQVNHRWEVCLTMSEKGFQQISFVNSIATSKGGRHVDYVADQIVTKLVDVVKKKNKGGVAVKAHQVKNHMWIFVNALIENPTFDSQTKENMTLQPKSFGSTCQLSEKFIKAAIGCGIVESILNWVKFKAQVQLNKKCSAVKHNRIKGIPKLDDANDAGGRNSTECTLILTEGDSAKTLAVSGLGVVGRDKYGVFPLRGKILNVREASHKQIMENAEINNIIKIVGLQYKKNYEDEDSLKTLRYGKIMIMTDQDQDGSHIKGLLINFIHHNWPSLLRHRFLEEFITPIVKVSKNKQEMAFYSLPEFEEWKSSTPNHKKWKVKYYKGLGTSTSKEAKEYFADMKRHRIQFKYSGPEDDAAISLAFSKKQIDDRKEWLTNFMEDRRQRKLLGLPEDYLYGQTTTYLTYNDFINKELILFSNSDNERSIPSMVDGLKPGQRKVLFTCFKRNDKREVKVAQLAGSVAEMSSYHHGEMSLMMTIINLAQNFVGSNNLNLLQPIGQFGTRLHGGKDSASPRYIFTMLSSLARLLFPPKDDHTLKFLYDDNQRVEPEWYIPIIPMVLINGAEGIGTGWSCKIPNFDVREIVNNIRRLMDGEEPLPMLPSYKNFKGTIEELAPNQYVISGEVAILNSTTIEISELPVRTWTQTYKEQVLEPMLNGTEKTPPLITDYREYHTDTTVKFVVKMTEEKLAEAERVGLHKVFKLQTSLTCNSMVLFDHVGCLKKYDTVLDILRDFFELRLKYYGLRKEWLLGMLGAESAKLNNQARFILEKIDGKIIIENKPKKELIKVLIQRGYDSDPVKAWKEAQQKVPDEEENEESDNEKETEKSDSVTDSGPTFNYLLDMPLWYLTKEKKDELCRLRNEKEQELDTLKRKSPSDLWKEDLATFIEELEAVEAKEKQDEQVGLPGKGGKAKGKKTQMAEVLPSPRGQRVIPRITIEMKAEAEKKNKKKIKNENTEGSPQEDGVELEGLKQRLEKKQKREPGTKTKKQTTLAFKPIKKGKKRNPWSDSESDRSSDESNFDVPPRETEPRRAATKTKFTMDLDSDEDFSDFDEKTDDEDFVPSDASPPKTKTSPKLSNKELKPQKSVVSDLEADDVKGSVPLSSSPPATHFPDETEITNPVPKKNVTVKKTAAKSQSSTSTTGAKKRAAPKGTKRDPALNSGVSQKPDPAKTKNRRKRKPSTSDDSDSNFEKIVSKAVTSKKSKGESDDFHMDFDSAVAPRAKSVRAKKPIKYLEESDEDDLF

Row | Structure (SMILES) | IC50 [1] [µM] | IC50 [2] [µM] | IC50 [3] [µM] | IC50 [4] [µM] | IC50 [5] [µM] | Activity [6] | Activity [7] | inhibition [8] [%] | inhibition [9] | Activity [10] | inhibition [11] [%] | inhibition [12] | inhibition [13] | inhibition [14]
1 | COc1ccc(/C=C\c2cc(OC)c(OC)c(OC)c2)cc1OP(=O)(O)O [FOSBRETABULIN DISODIUM] | 0.079 | 0.0039 | 0.095 | 0.0029 | 0.082 | – | – | – | – | – | – | – | – | –
2 | COc1cc(NS(C)(=O)=O)ccc1Nc1c2ccccc2nc2ccccc12 | – | – | – | – | – | Active | – | – | – | – | – | – | – | –
3 | CC[C@@]1(O)C(=O)OCc2c1cc1n(c2=O)Cc2cc3ccccc3nc2-1 | – | – | – | – | – | – | Active | – | – | – | – | – | – | –
4 | COc1ccc2c3c(c4cc(OC)c(OC)cc4c2c1)CN1CCCC[C@H]1C3 | 0.182 | 0.023 | 0.201 | 0.082 | 0.111 | – | inactive | 10 | Dose-dependent effect | inactive | 41 | inactive | Active | Active
5 | COc1ccc2c3c(c4cc(OC)c(OC)cc4c2c1)CN1CCCC[C@@H]1C3 | 0.066 | 0.023 | 0.185 | 0.0074 | 0.019 | – | inactive | 12 | Dose-dependent effect | inactive | 65 | inactive | Active | Active
6 | COc1ccc2c3c(c4cc(OC)c(OC)cc4c2c1)CN1CCCCC1C3 (racemic) | 0.076 | 0.009 | 0.119 | 0.029 | 0.071 | – | – | – | – | – | – | – | – | –
